Reference: patent publication US8968663B2, “Monitoring membrane-bound proteins” (University of Utah Research Foundation, priority 2011, dated 2015)

Columns and labels:
[1] = system: ShakerB-IR K^+ ion channel; experiment: Two-electrode voltage clamp of ShakerB-IR expressing Xenopus oocytes with Cu^2+ applied as ion channel blocker; format: cell-based; details: ~120 μM Cu^2+ pipetted above the cell, FIG. 10
Description: Complementary deoxyribonucleic acid (cDNA) for the Shaker ion-channel variant ShakerB-IR (inactivation removed) was transformed in E. coli and linearized using the restriction enzyme, Kpn-1. cRNA was transcribed from linearized DNA, and 32 nL/cell of the transcribed RNA was injected into Xenopus oocytes. Recordings were done 24-48 hours after injection to allow time for protein expression. Currents were measured using two-microelectrode voltage clamp to verify ShakerB-IR ion channel expression. Oocytes were stored in Superbarths Oocyte media (88 mM NaCl, 1 mM KCl, 0.41 mM CaCl2, 0.33 mM Ca(NO3)2, 1 mM MgSO4, 2.4 mM NaHCO3, 10 mM HEPES, 1 mM pyruvate and 50 μg/ml gentamicin, titrated using NaOH to a pH of 7.4) at 17° Celsius (C.). Oocytes were also bathed in this media during RF recording.
(§1) Oocytes were positioned into a recording chamber consisting of an RF belt electrode surrounding the meridian of the cell and a ground electrode located in the oocyte media above an axial pole of the cell. Two glass micropipettes (1-3 MΩ access resistance) filled with 3M KCL were carefully guided into the oocyte using an upright microscope (Zeiss AxioTech). One micropipette was attached to a voltage-measuring headstage (HS-2Ax1 LU, Molecular Devices, Sunnyvale, Calif.) and the second micropipette was attached to a current-injecting headstage (HS-2Ax10MGU, Molecular Devices, Sunnyvale, Calif.). […]

[2] = system: ShakerB-IR K^+ ion channel; experiment: RF (500 kHz) impedance interrogation of ShakerB-IR expressing Xenopus oocytes under voltage clamp; format: cell-based; details: ~120 μM Cu^2+, 500 kHz RF signal, FIG. 10
Description: Complementary deoxyribonucleic acid (cDNA) for the Shaker ion-channel variant ShakerB-IR (inactivation removed) was transformed in E. coli and linearized using the restriction enzyme, Kpn-1. cRNA was transcribed from linearized DNA, and 32 nL/cell of the transcribed RNA was injected into Xenopus oocytes. Recordings were done 24-48 hours after injection to allow time for protein expression. Currents were measured using two-microelectrode voltage clamp to verify ShakerB-IR ion channel expression. […]
(§2) RF voltage measurements were sampled through a head-stage voltage-follower operational amplifier (OPA356, Texas Instruments, Dallas, Tex.). The RF signal was high pass filtered (100 kHz, 48 DB/oct Bessel HPF; SIM965, Stanford Research Systems, Sunnyvale, Calif.) and detected by a lock-in amplification (0 integration time, SR844, Stanford Research Systems, Sunnyvale, Calif.). The quadrature outputs on the lock-in amplifier detected changes on the order of 10 microvolts, and time delays caused by the lock-in amplifier and HPF were accounted for prior to data analysis. TEVC data (command voltage, sensed voltage, measured current) and RF data (quadrature outputs from the lock-in amplifier) were sampled every 20 μs using a 16 bit A-D converter (ITC-18, HEKA Inst. Bellmore, N.Y.). […]

[3] = system: control oocytes (endogenous protein response); experiment: RF (500 kHz) impedance interrogation of control Xenopus oocytes under voltage clamp; format: cell-based; details: ~120 μM Cu^2+, 500 kHz RF signal, FIG. 10
Excerpt: as §1, §2

[4] = system: ShakerB-IR K^+ ion channel; details: extracellular application; stated as known; cited from earlier work

With `[Cu+2]` [Cu^2+] the “effect on ShakerB-IR K^+ current” value [1] was “blocked the ShakerB-IR K^+ current”, the “effect on charge displacement within the RF electric field (voltage-dependent RF impedance)” value [2] was “increased charge displacement within the RF electric field” and the “effect on charge displacement within the RF electric field in control cells” value [3] was “not observed to the same extent in control cells”. For the same compound, the “known effect of extracellular Cu^2+ on K^+ conductance” value [4] was “shift the K^+ conductance to more depolarized levels”.
